Holding throughout (type): physicochemical
A short description of data set [1]: Stability of crystal under heating (73° C.) conditions. To be noted: stored at 73° C. for 2 weeks. The method, then: (§1) X-ray diffraction patterns of crystals were taken using Cu-Kα radiation (40 kV, 40 mA, λ=1.541 angstroms) with a powder X-ray diffraction apparatus (X-ray diffraction RINT DMAX-2000, manufactured by Rigaku Industrial Corporation) (scanning speed: 5 degrees/min, scanning range: 5.000 to 40.000 degrees, filter: Kβ filter). Based on powder X-ray diffraction patterns thus obtained, peak positions and relative intensity (%) were determined for peaks with a relative intensity of not less than 20%.
Stability of Crystal Under Heating (73° C.) Conditions
Form I to III crystals of hydrochloride, form I crystal of nitrate, form I and II crystals of sulfate, form I crystal of methanesulfonate, form I and II crystals of p-toluenesulfonate, and form I and II crystals of maleate of N-{2-chloro-4-[(6,7-dimethoxy-4-quinolyl)oxy]phenyl}-N′-(5-methyl-3-isoxazolyl)urea were stored at 73° C. for 2 weeks. […]

Data set [2] is described as follows: Stability of crystal under high humidity (40° C., 75% RH) conditions. To be noted: stored at 40° C. and 75% RH for 2 weeks. On the procedure: as §1
Stability of Crystal Under High Humidity (40° C., 75% RH) Conditions
Form I to III crystals of hydrochloride, form I crystal of nitrate, form I and II crystals of sulfate, form I crystal of methanesulfonate, form I and II crystals of p-toluenesulfonate, and form I and II crystals of maleate of N-{2-chloro-4-[(6,7-dimethoxy-4-quinolyl)oxy]phenyl}-N′-(5-methyl-3-isoxazolyl)urea were stored under conditions of 40° C. and 75% RH for 2 weeks. […]

Data set [3] is described as follows: Stability of crystal against physical stress (grinding in a mortar). To be noted: ground in an agate or porcelain mortar. On the procedure:
as §1
Stability of Crystal Against Physical Stress
Each of form I to III crystals of hydrochloride, form I crystal of nitrate, form I and II crystals of sulfate, form I crystal of methanesulfonate, form I and II crystals of p-toluenesulfonate, and form I and II crystals of maleate of N-{2-chloro-4-[(6,7-dimethoxy-4-quinolyl)oxy]phenyl}-N′-(5-methyl-3-isoxazolyl)urea was ground in a mortar. In grinding each crystal in the mortar, about 1 mg of each crystal sample was placed and ground in an agate mortar or a porcelain mortar. For each sample before and after grinding, a powder X-ray diffraction chart was measured by method 1 to evaluate the stability of the crystal against physical stress.

Data set [4] can be described thus: Hygroscopicity of crystal (weight change on storage). To be noted: 40° C. and 75% RH; for hygroscopicity (level, in words): 2 weeks, based on weight change. The method, then: Hygroscopicity of Crystal
Form I to III crystals of hydrochloride, form I crystal of nitrate, form I and II crystals of sulfate, form I crystal of methanesulfonate, form I and II crystals of p-toluenesulfonate, and form I and II crystals of maleate of N-{2-chloro-4-[(6,7-dimethoxy-4-quinolyl)oxy]phenyl}-N′-(5-methyl-3-isoxazolyl)urea were stored under conditions of 40° C. and 75% RH for 2 weeks. Before and after the storage, the weight of each crystal was measured to determine a difference in weight between before the storage and after the storage.
For each crystal, the hygroscopicity was evaluated based on the weight change.

Where [5] appears, read: listed as form II crystal of hydrochloride, hydrochloride.

“Also recorded” adds a separate entry of the source.

Turning to `COc1cc2nccc(Oc3ccc(NC(=O)Nc4cc(C)on4)c(Cl)c3)c2cc1OC.O=C(O)/C=C\C(=O)O` [Form I crystal of maleate, N-{2-chloro-4-[(6,7-dimethoxy-4-quinolyl)oxy]phenyl}-N′-(5-methyl-3-isoxazolyl)urea maleate], the “stability of crystal under high temperature conditions (change of powder X-ray diffraction chart)” value in data set [1] is “excellent stability”. For the same molecule, in data set [2], the “stability of crystal under high humidity conditions (change of powder X-ray diffraction chart)” value is reported as “excellent stability”. Besides, the “stability of crystal against physical stress (powder X-ray diffraction before and after grinding)” value in data set [3] (maleate) was “lowering in peak intensity”. Also, in data set [4] (maleate), the “hygroscopicity (level, in words)” value was “low level of hygroscopicity; also recorded: on a low level”; the “weight change (hygroscopicity) After 1 week” value worked out at 0.41%; the “weight change (hygroscopicity) After 2 weeks” value worked out at 0.53%; the “weight change (hygroscopicity) After 2 days” value was found to be 0.46%.
Take `COc1cc2nccc(Oc3ccc(NC(=O)Nc4cc(C)on4)c(Cl)c3)c2cc1OC.CS(=O)(=O)O` [Form I crystal of methanesulfonate, N-{2-chloro-4-[(6,7-dimethoxy-4-quinolyl)oxy]phenyl}-N′-(5-methyl-3-isoxazolyl)urea methanesulfonate]: the “stability of crystal under high temperature conditions (change of powder X-ray diffraction chart)” value in data set [1] is on record as “excellent stability”. Further, in data set [2], the “stability of crystal under high humidity conditions (change of powder X-ray diffraction chart)” value is on record as “excellent stability”. Also, the “stability of crystal against physical stress (powder X-ray diffraction before and after grinding)” value in data set [3] is given as “excellent stability”. Besides, in data set [4], the “hygroscopicity (level, in words)” value is reported as “highly hygroscopic”; the “weight change (hygroscopicity) After 1 week” value amounted to 2.70%; the “weight change (hygroscopicity) After 2 weeks” value was 2.84%; the “weight change (hygroscopicity) After 2 days” value worked out at 2.58%.
`COc1cc2nccc(Oc3ccc(NC(=O)Nc4cc(C)on4)c(Cl)c3)c2cc1OC.O=[N+]([O-])O` [Form I crystal of nitrate, N-{2-chloro-4-[(6,7-dimethoxy-4-quinolyl)oxy]phenyl}-N′-(5-methyl-3-isoxazolyl)urea nitrate]: the “stability of crystal under high temperature conditions (change of powder X-ray diffraction chart)” value in data set [1] is “excellent stability”. The “stability of crystal under high humidity conditions (change of powder X-ray diffraction chart)” value in data set [2] is “excellent stability”. Moreover, in data set [3], the “stability of crystal against physical stress (powder X-ray diffraction before and after grinding)” value is “excellent stability”. For the same molecule, in data set [4], the “hygroscopicity (level, in words)” value is listed as “highly hygroscopic”; the “weight change (hygroscopicity) After 1 week” value is listed as 2.22%; the “weight change (hygroscopicity) After 2 weeks” value worked out at 2.22%; the “weight change (hygroscopicity) After 2 days” value is 2.04%.
As to `COc1cc2nccc(Oc3ccc(NC(=O)Nc4cc(C)on4)c(Cl)c3)c2cc1OC.Cc1ccc(S(=O)(=O)O)cc1` [Form I crystal of p-toluenesulfonate, N-{2-chloro-4-[(6,7-dimethoxy-4-quinolyl)oxy]phenyl}-N′-(5-methyl-3-isoxazolyl)urea p-toluenesulfonate], the “stability of crystal under high temperature conditions (change of powder X-ray diffraction chart)” value in data set [1] is given as “excellent stability”. The “stability of crystal under high humidity conditions (change of powder X-ray diffraction chart)” value in data set [2] is “excellent stability”. In addition, the “stability of crystal against physical stress (powder X-ray diffraction before and after grinding)” value in data set [3] was “excellent stability”. Also, in data set [4] (p-toluenesulfonate), the “hygroscopicity (level, in words)” value is “low level of hygroscopicity; also recorded: on a low level”; the “weight change (hygroscopicity) After 1 week” value was found to be 0.24%; the “weight change (hygroscopicity) After 2 weeks” value turned out to be 0.25%; the “weight change (hygroscopicity) After 2 days” value is 0.29%.
With `COc1cc2nccc(Oc3ccc(NC(=O)Nc4cc(C)on4)c(Cl)c3)c2cc1OC.O=S(=O)(O)O` [Form I crystal of sulfate, N-{2-chloro-4-[(6,7-dimethoxy-4-quinolyl)oxy]phenyl}-N′-(5-methyl-3-isoxazolyl)urea sulfate], the “stability of crystal under high temperature conditions (change of powder X-ray diffraction chart)” value in data set [1] (listed as form I crystal of sulfate, sulfate) is “excellent stability”. Moreover, in data set [2] (sulfate), the “stability of crystal under high humidity conditions (change of powder X-ray diffraction chart)” value is “converted to a mixture of form I crystal and a novel crystalline form”. Moreover, in data set [3], the “stability of crystal against physical stress (powder X-ray diffraction before and after grinding)” value is reported as “lowering in peak intensity”. In addition, in data set [4], the “hygroscopicity (level, in words)” value is on record as “highly hygroscopic”; the “weight change (hygroscopicity) After 1 week” value turned out to be 4.21%; the “weight change (hygroscopicity) After 2 weeks” value is on record as 4.25%; the “weight change (hygroscopicity) After 2 days” value turned out to be 4.20%.
Consider `COc1cc2nccc(Oc3ccc(NC(=O)Nc4cc(C)on4)c(Cl)c3)c2cc1OC.Cl` [Form II crystal of hydrochloride, N-{2-chloro-4-[(6,7-dimethoxy-4-quinolyl)oxy]phenyl}-N′-(5-methyl-3-isoxazolyl)urea hydrochloride], for which the “stability of crystal under high temperature conditions (change of powder X-ray diffraction chart)” value in data set [1] (setting [5]) is recorded as “excellent stability”. For the same molecule, the “stability of crystal under high humidity conditions (change of powder X-ray diffraction chart)” value in data set [2] (setting [5]) was “excellent stability”. The “stability of crystal against physical stress (powder X-ray diffraction before and after grinding)” value in data set [3] (setting [5]) is listed as “excellent stability”. Also, in data set [4] (hydrochloride), the “hygroscopicity (level, in words)” value was “low level of hygroscopicity; also recorded: on a low level”; the “weight change (hygroscopicity) After 1 week” value came to 0.29%; the “weight change (hygroscopicity) After 2 weeks” value was found to be 0.20%; the “weight change (hygroscopicity) After 2 days” value is reported as 0.30%.
`COc1cc2nccc(Oc3ccc(NC(=O)Nc4cc(C)on4)c(Cl)c3)c2cc1OC.O=C(O)/C=C\C(=O)O` [Form II crystal of maleate, N-{2-chloro-4-[(6,7-dimethoxy-4-quinolyl)oxy]phenyl}-N′-(5-methyl-3-isoxazolyl)urea maleate]: in data set [1], the “stability of crystal under high temperature conditions (change of powder X-ray diffraction chart)” value is reported as “excellent stability”. For the same molecule, the “stability of crystal under high humidity conditions (change of powder X-ray diffraction chart)” value in data set [2] is on record as “excellent stability”. Moreover, the “stability of crystal against physical stress (powder X-ray diffraction before and after grinding)” value in data set [3] (maleate) is reported as “excellent stability”. In data set [4] (maleate), the “hygroscopicity (level, in words)” value is “low level of hygroscopicity; also recorded: on a low level”; the “weight change (hygroscopicity) After 1 week” value worked out at 0.42%; the “weight change (hygroscopicity) After 2 weeks” value stood at 0.57%; the “weight change (hygroscopicity) After 2 days” value was determined as 0.60%.
As to `COc1cc2nccc(Oc3ccc(NC(=O)Nc4cc(C)on4)c(Cl)c3)c2cc1OC.Cc1ccc(S(=O)(=O)O)cc1` [Form II crystal of p-toluenesulfonate, N-{2-chloro-4-[(6,7-dimethoxy-4-quinolyl)oxy]phenyl}-N′-(5-methyl-3-isoxazolyl)urea p-toluenesulfonate], in data set [1], the “stability of crystal under high temperature conditions (change of powder X-ray diffraction chart)” value is “excellent stability”. Besides, the “stability of crystal under high humidity conditions (change of powder X-ray diffraction chart)” value in data set [2] is “excellent stability”. Moreover, the “stability of crystal against physical stress (powder X-ray diffraction before and after grinding)” value in data set [3] is on record as “excellent stability”. Also, in data set [4] (p-toluenesulfonate), the “hygroscopicity (level, in words)” value is on record as “low level of hygroscopicity; also recorded: on a low level”; the “weight change (hygroscopicity) After 1 week” value is given as 0.70%; the “weight change (hygroscopicity) After 2 weeks” value came out at 0.80%; the “weight change (hygroscopicity) After 2 days” value amounted to 0.84%.
Turning to `COc1cc2nccc(Oc3ccc(NC(=O)Nc4cc(C)on4)c(Cl)c3)c2cc1OC.O=S(=O)(O)O` [Form II crystal of sulfate, N-{2-chloro-4-[(6,7-dimethoxy-4-quinolyl)oxy]phenyl}-N′-(5-methyl-3-isoxazolyl)urea sulfate], the “stability of crystal under high temperature conditions (change of powder X-ray diffraction chart)” value in data set [1] (listed as form II crystal of sulfate, sulfate) was “converted to a novel crystalline form”. Besides, the “stability of crystal under high humidity conditions (change of powder X-ray diffraction chart)” value in data set [2] (listed as from II crystal of sulfate, sulfate) is on record as “converted to a novel crystalline form”.

Values taken from patent publication US20060052415A1, “N-{2-chloro-4-[(6,7-dimethoxy-4-quinolyl)oxy]phenyl}-n'-(5-methyl-3-isoxazolyl)urea salt in crystalline form” (KIRIN BEER KABUSHIKI KAISHA, priority 2002, published 2006).
